Experimental data: patent US9493479B2 (Merck Sharp & Dohme Corp., priority 2013, dated 2016)
Where a name gives a salt, the structure may show the parent alone.

Legend:
[1] = test system: HIV-1 (NL4-3 strain); experiment: ViKinG (Viral Kinetics GFP Reporter) assay for inhibition of HIV replication; assay type: cell-based; settings: MT4-GFP cells infected with HIV-1 NL4-3, RPMI + 10% or 50% NHS (not given), infected cells at 48 h / 24 h
Source text: The ViKinG (Viral Kinetics GFP Reporter) assay is an in vitro kinetic assay that employs the MT4-gag-GFP reporter cell line (Wang et al., “Assessment of the susceptibility of mutant HIV-1 to antiviral agents.” J Virological Methods 165:230-37 (2010)) to quantify the number of new cells infected in each round of replication. The purpose of the ViKinG assay is to identify agents that inhibit HIV progression. Briefly, HIV infection results in tat transactivation of the stably expressed HIV LTR promoter to drive gagGFP expression. Thus, an increase in the number of GFP-MT4 cells results following HIV infection.
MT4-GFP cells (250,000 cells/m1) were bulk-infected with HIV-1 (NL4-3 strain) at low multiplicity of infection (MOT) in RPMI+10% FBS for 24 hours. Cells were then washed once in RPMI+10% FBS and resuspended RPMI+10% or 50% normal human serum (NHS). Test compounds were serial-diluted in DMSO on an ECHO® liquid handling platform (Labcyte Corp., Sunnyvale, Calif.), along with a triple drug control (integrase, protease and NNRTI compounds). The infected MT4-GFP cells were added to a 384-well poly-D-lysine coated black plate with clear bottom in which the diluted test compounds were placed. The cells were seeded at 8,000 cells per well and the final DMSO concentration was 0.4%. The infected cells (Green GFP cells) were quantified at both 24 and 48 hours post incubation using Acumen® eX3 (TTP Labtech Ltd., Hertfordshire, United Kingdom). Viral reproductive ratio (R0) was determined using the number of infected cells at 48 hours divided by the number of infected cells at 24 hours. Percent viral growth inhibition was calculated by [1−(R−Rtripledrug)/(RDMSO−Rtripledrug)]*100. Compound potency IP or IC50 was determined by a 4-parameter dose response curve analysis.

[2] = target: T1, WT-Integrase (Human immunodeficiency virus type 1 group M subtype B, UniProt P04585); experiment: InSTANT integrase DNA strand transfer functional assay; assay type: biochemical, HIV; settings: SPA strand transfer, 15 minutes at 37° C.
T1 construct: assembled PVT SPA beads with WT-Integrase and boitinylated DNA
Description: InSTANT is an integrase DNA strand transfer functional assay used to determine potency of InSTIs, which was carried out as described below. 8 μl of SPA buffer (27.8 mM Hepes, 27.8 mM MgCl2, 111.1 μg/mL BSA, 5.56 mM βME, and 57.1 mM NaCl) containing 5 nM 3H-labeled target DNA (prepared separately) and 10 μl of assembled PVT SPA beads with WT-Integrase and boitinylated DNA (prepared separately) were added to the assay plate which contained 0.4 μl of test compound(s) or positive or negative control compound(s) per well. The assay plate was shaken for 1 minute on HT-91002 1.0 MM shaker and then was sealed and incubated for 15 minutes at 37° C. The assay reaction was quenched by adding 4 μl of 1.25 M EDTA to each well of the assay plate with mixing. After incubating the plate at room temperature for 1 hour, the quenched plate was spun at 200 g for 1 minute and read on TopCount (1 minute per well). Percent inhibition was calculated by [1−(Sample−Min)/(Max−Min)]*100. Compound potency IP or IC50 was determined by a 4-parameter dose response curve analysis.

[3] = Human immunodeficiency virus 1, NL43

Work on `O=C1c2c(O)c(=O)c3c(n2CCN1Cc1ccc(F)c(Cl)c1)COC31CCCC1O` (stereo not drawn) [Compound 14, 7′-(3-chloro-4-fluorobenzyl)-2,5′-dihydroxy-8′,9′-dihydrospiro[cyclopentane-1,3′-furo[3′,4′:5,6]pyrido[1,2-a]pyrazine]-4′,6′(1′H,7′H)-dione] yielded an IC50 [1, 3] of 144 nM and an IC50 [2] of 12 nM.
For `C=C1CN(C)C(=O)c2c1c(=O)c(O)c1n2CCN(Cc2ccc(F)c(Cl)c2)C1=O` [Compound 21, 8-(3-chloro-4-fluorobenzyl)-6-hydroxy-2-methyl-4-methylene-3,4,9,10-tetrahydro-1H-pyrazino[1,2-a][1,7]naphthyridine-1,5,7(2H,8H)-trione], the IC50 [1, 3] was 155 nM and the IC50 [2] was 2 nM.
`C/C=C1\COCc2c1c(=O)c(O)c1n2CCN(Cc2ccc(F)c(Cl)c2)C1=O` [Compound 5, (Z)-8-(3-chloro-4-fluorobenzyl)-4-ethylidene-6-hydroxy-3,4,9,10-tetrahydropyrano[4′,3′:5,6]pyrido[1,2-a]pyrazine-5,7(1H,8H)-dione] gave an IC50 [1, 3] of 183 nM.
In the case of `CC1CCN(C(=O)C(=O)N(C)C)Cc2c1c(=O)c(O)c1n2CCN(Cc2ccc(F)c(Cl)c2)C1=O` (stereo not drawn) [Compound 18, 2-(9-(3-chloro-4-fluorobenzyl)-7-hydroxy-5-methyl-6,8-dioxo-4,5,8,9,10,11-hexahydropyrazino[1′,2′:1,6]pyrido[2,3-c]azepin-2(1H,3H,6H)-yl)-N,N-dimethyl-2-oxoacetamide], the IC50 [1, 3] is reported as 3660 nM and the IC50 [2] is reported as 20 nM.
`C=C1CCOCc2c1c(=O)c(O)c1n2CCN(Cc2ccc(F)c(Cl)c2)C1=O` [Compound 28] gave an IC50 [1, 3] of 503 nM.
`O=C1c2c(O)c(=O)c3c(n2CCN1Cc1ccc(F)c(Cl)c1)COC31C=CCCC1` (stereo not drawn) [Compound 15, 7′-(3-chloro-4-fluorobenzyl)-5′-hydroxy-8′,9′-dihydrospiro[cyclohex[2]ene-1,3′-furo[3′,4′:5,6]pyrido[1,2-a]pyrazine]-4′,6′(1′H,7′H)-dione] was tested, and the IC50 [1, 3] was 401 nM.
`CC(C)c1c(CN)n2c(c(O)c1=O)C(=O)N(Cc1ccc(F)c(Cl)c1)CC2` [Compound 32, 6-(aminomethyl)-2-(3-chloro-4-fluorobenzyl)-9-hydroxy-7-isopropyl-3,4-dihydro-1H-pyrido[1,2-a]pyrazine-1,8(2H)-dione trifluoroacetate salt] showed an IC50 [1, 3] of 151 nM and an IC50 [2] of 14 nM.
`Cc1cn(C)c(=O)c2c1c(=O)c(O)c1n2CCN(Cc2ccc(F)c(Cl)c2)C1=O` [Compound 22, 8-(3-chloro-4-fluorobenzyl)-6-hydroxy-2,4-dimethyl-9,10-dihydro-1H-pyrazino[1,2-a][1,7]naphthyridine-1,5,7(2H,8H)-trione] was tested, and the IC50 [1, 3] was 456 nM and the IC50 [2] was 1 nM.
`O=C1c2c(O)c(=O)c3c(n2CCN1Cc1ccc(F)c(Cl)c1)COC31C=CCC1` (stereo not drawn) [Compound 12, 7′-(3-chloro-4-fluorobenzyl)-5′-hydroxy-8′,9′-dihydrospiro[cyclopent[2]ene-1,3′-furo[3′,4′:5,6]pyrido[1,2-a]pyrazine]-4′,6′(1′H,7′H)-dione] gave an IC50 [1] of 1020 nM.
`CC(C)C1COCc2c1c(=O)c(O)c1n2CCN(Cc2ccc(F)cc2)C1=O` (stereo not drawn) [Compound 27] showed an IC50 [1, 3] of 672 nM.
Work on `CC1COCc2c1c(=O)c(O)c1n2CCN(Cc2ccc(F)c(Cl)c2)C1=O` (stereo not drawn) [Compound 25] yielded an IC50 [1, 3] of 351 nM and an IC50 [2] of 21 nM.
`CC(C)c1c(CNC(=O)c2ccon2)n2c(c(O)c1=O)C(=O)N(Cc1ccc(F)c(Cl)c1)CC2` [Compound 10, N-((2-(3-chloro-4-fluorobenzyl)-9-hydroxy-7-isopropyl-1,8-dioxo-2,3,4,8-tetrahydro-1H-pyrido[1,2-a]pyrazin-6-yl)methyl)isoxazole-3-carboxamide] gave an IC50 [1, 3] of 406 nM.
For `CC1CCN(C(=O)CN(C)C)Cc2c1c(=O)c(O)c1n2CCN(Cc2ccc(F)c(Cl)c2)C1=O` (stereo not drawn) [Compound 30], the IC50 [1, 3] was 3250 nM.
For `CC(C)c1c(CNC(=O)OC(C)(C)C)n2c(c(O)c1=O)C(=O)N(Cc1ccc(F)c(Cl)c1)CC2` [Compound 31, tert-butyl((2-(3-chloro-4-fluorobenzyl)-9-hydroxy-7-isopropyl-1,8-dioxo-2,3,4,8-tetrahydro-1H-pyrido[1,2-a]pyrazin-6-yl)methyl)carbamate], the IC50 [1, 3] was 2610 nM and the IC50 [2] was 42 nM.
In the case of `CC1CCNCc2c1c(=O)c(O)c1n2CCN(Cc2ccc(F)c(Cl)c2)C1=O` (stereo not drawn) [Compound 16, 9-(3-chloro-4-fluorobenzyl)-7-hydroxy-5-methyl-2,3,4,5,10,11-hexahydropyrazino[1′,2′:1,6]pyrido[2,3-c]azepine-6,8(1H,9H)-dione trifluoroacetate salt], the IC50 [1, 3] is reported as 487 nM.
In the case of `C=C1CCN(C(=O)C(=O)N(C)C)Cc2c1c(=O)c(O)c1n2CCN(Cc2ccc(F)c(Cl)c2)C1=O` [Compound 17, 2-(9-(3-chloro-4-fluorobenzyl)-7-hydroxy-5-methylene-6,8-dioxo-4,5,8,9,10,11-hexahydropyrazino[1′,2′:1,6]pyrido[2,3-c]azepin-2(1H,3H,6H)-yl)-N,N-dimethyl-2-oxoacetamide], the IC50 [1, 3] is reported as over 4200 nM.
With `O=C1c2c(O)c(=O)c3c(n2CCN1Cc1ccc(F)c(Cl)c1)COC31CCC2CC21` (stereo not drawn) [Compound 13] the IC50 [1, 3] was 333 nM and the IC50 [2] was 8 nM.
With `CN1C/C=C\Cc2c(n3c(c(O)c2=O)C(=O)N(Cc2ccc(F)c(Cl)c2)CC3)C1=O` [Compound 23, (Z)-10-(3-chloro-4-fluorobenzyl)-8-hydroxy-2-methyl-2,3,11,12-tetrahydro-1H-pyrazino[1′,2′:1,6]pyrido[2,3-c]azocine-1,7,9(6H,10H)-trione] the IC50 [1, 3] was 273 nM.
`O=C1c2c(O)c(=O)c3c(n2CCN1Cc1ccc(F)c(Cl)c1)COCC1CC31` (stereo not drawn) [Compound 3, 2-(3-chloro-4-fluorobenzyl)-11-hydroxy-3,4,8,8a,9,9a-hexahydrocyclopropa[5′,6]oxepino[4′,3′:5,6]pyrido[1,2-a]pyrazine-1,10(2H,6H)-dione] showed an IC50 [1, 3] of 241 nM.
`CCC1COCc2c1c(=O)c(O)c1n2CCN(Cc2ccc(F)c(Cl)c2)C1=O` (stereo not drawn) [Compound 7] showed an IC50 [1, 3] of 461 nM and an IC50 [2] of 13 nM.
With `CC(C)c1c(C(=O)N(C)C)n2c(c(O)c1=O)C(=O)N(Cc1ccc(F)cc1)CC2` [Compound 20, 2-(4-fluorobenzyl)-9-hydroxy-7-isopropyl-N,N-dimethyl-1,8-dioxo-2,3,4,8-tetrahydro-1H-pyrido[1,2-a]pyrazine-6-carboxamide] the IC50 [1, 3] was 286 nM and the IC50 [2] was 20 nM.
In the case of `CCc1cn(C)c(=O)c2c1c(=O)c(O)c1n2CCN(Cc2ccc(F)c(Cl)c2)C1=O` [Compound 24, 8-(3-chloro-4-fluorobenzyl)-4-ethyl-6-hydroxy-2-methyl-9,10-dihydro-1H-pyrazino[1,2-a][1,7]naphthyridine-1,5,7(2H,8H)-trione], the IC50 [1, 3] is reported as 1120 nM.
For `C=C(C)C1COCc2c1c(=O)c(O)c1n2CCN(Cc2ccc(F)c(Cl)c2)C1=O` (stereo not drawn) [Compound 26], the IC50 [1, 3] was 272 nM.
`C=C1COCc2c1c(=O)c(O)c1n2CCN(Cc2ccc(F)c(Cl)c2)C1=O` [Compound 11, 8-(3-chloro-4-fluorobenzyl)-6-hydroxy-4-methylene-3,4,9,10-tetrahydropyrano[4′,3′:5,6]pyrido[1,2-a]pyrazine-5,7(1H,8H)-dione] was tested, and the IC50 [1, 3] was 298 nM.
Work on `C=C1CCN(C(=O)CN(C)C)Cc2c1c(=O)c(O)c1n2CCN(Cc2ccc(F)c(Cl)c2)C1=O` [Compound 29] yielded an IC50 [1, 3] of over 4200 nM.
`O=C1c2c(O)c(=O)c3c(n2CCN1Cc1ccc(F)cc1)COCCCC3` [Compound 9, 10-(4-fluorobenzyl)-8-hydroxy-3,4,5,6,11,12-hexahydrooxocino[4,3′:5,6]pyrido[1,2-a]pyrazine-7, 9(1H, 1 OH)-dione] gave an IC50 [1] of 961 nM.
